Entries after “also recorded” stand apart in the source; their conditions may differ.
Assays:
[1] = test system: soluble c-FMS (ectodomain shedding of c-FMS); test: Soluble c-FMS in culture media of human CD14+ cells, ELISA; assay type: cell-based; settings: BB94 10 uM for 2 days after 8 hours M-CSF (20 ng/ml)
Method: FIGS. 8A-8I show c-FMS expression in synovial macrophages. (A) The levels of M-CSF in synovial fluids from patients with rheumatoid arthritis (RA, n=13) and osteoarthritis (OA, n=8) were measured. (B) Mass spectrometry analysis for proteins from ˜50 kDa bands (red box) identified c-FMS as one of top genes. An image of coomassie blue stained genes showing immunoprecipitated cells lysates with either anti-DDK-tag antibodies or IgG control. (C-G) Human CD14+ cells were cultured with M-CSF (20ng/ml). Immunoblot of c-FMS with different antibodies against C-terminal of c-FMS; (C) C-20, (D) D-8, and (E) #3152. Immunoblot of c-FMS with different antibodies against N-terminal of c-FMS; (F) #61701, (G) H-300. (H-I) Human CD14+ cells were cultured with M-CSF (20 ng/ml) for 8 hours to induce early signals, and then BB94 (10 uM) was added for 2 days. […] (I) Soluble c-FMS was detected by ELISA (n=3). […]
c-FMS and M-CSF in synovial fluids and the supernatants of cell culture was measured using sandwich ELISA kit (R&D Systems; DY329 and DY216) according to manufacturer's instructions. C-telopeptide of type I collagen (CTX-1) and Procollagen 1 N-Terminal Propeptide (P1NP) in Serum from WT and FICDtg^M mice were measured using RatLapstm EIA kit (Immunodiagnostic Systems; AC-06F1) or P1NP-ELISA kit (Cloud-Clone corp; SEA957Mu) according to the manufacturer's instructions.

[2] = test system: FICDs (c-FMS intracellular fragments); test: FICD generation in M-CSF-cultured human CD14+ cells, immunoblot of whole lysates; assay type: cell-based; settings: BB94 10 uM for 2 days after 8 hours M-CSF (20 ng/ml)
Method: FIGS. 8A-8I show c-FMS expression in synovial macrophages. (A) The levels of M-CSF in synovial fluids from patients with rheumatoid arthritis (RA, n=13) and osteoarthritis (OA, n=8) were measured. (B) Mass spectrometry analysis for proteins from ˜50 kDa bands (red box) identified c-FMS as one of top genes. An image of coomassie blue stained genes showing immunoprecipitated cells lysates with either anti-DDK-tag antibodies or IgG control. (C-G) Human CD14+ cells were cultured with M-CSF (20ng/ml). Immunoblot of c-FMS with different antibodies against C-terminal of c-FMS; (C) C-20, (D) D-8, and (E) #3152. Immunoblot of c-FMS with different antibodies against N-terminal of c-FMS; (F) #61701, (G) H-300. (H-I) Human CD14+ cells were cultured with M-CSF (20 ng/ml) for 8 hours to induce early signals, and then BB94 (10 uM) was added for 2 days. (H) Immunoblot with anti c-FMS and α-tubulin antibodies in whole lysates (n=3). (I) Soluble c-FMS was detected by ELISA (n=3). […] All data are shown as mean±SEM. *; p<0.05 significant by two-tailed, paired t-test (A and I). M: mature form, I: immature form, H: hgh mass, L: low mass.
FIGS. 10A-10F show calpain regulates FICD generation. (A and B) Human CD14+ cells were cultured with M-CSF (20 ng/ml) for 8 hours to induce early signals and then (A) MDL 28170(0, 1, 2, 5 uM) or (B) PD150606 (0, 2, 5 uM) was added for 2 days. […]

[3] = test system: FICD (mem, H-FICD, L-FICD); test: FICD in membrane, cytoplasmic and nuclear fractions of human OCPs, immunoblot; assay type: cell-based; settings: for generation of H-FICD and L-FICD and cellular distribution of FICDs: human CD14+ cells stimulated with ligand (20 ng/ml)
Method: (a) Human CD14+ cells were cultured with M-CSF (20 ng/ml) for 8 hours to induce early signals and then DAPT (10uM) was added for 2 days. Protein expression of c-FMS, Na+K+ pump, Lamin B1 and α-tubulin, as determined by immunoblot. ME; membrane extracts, CE; cytoplasmic extracts, and NE; nuclear extracts. (b) Immunohistochemistry of DAPI and c-FMS [middle]. […] Scale: 200×. (c) Cells were starved for three hours and then stimulated with M-CSF for the indicated times. (d and e) Cells were treated with Imatinib (0.3 μM, d) or c-FMS blocking antibody (5 μg) prior to the addition of M-CSF. Protein expression of FICD was measured by immunoblot. Lamin B1 and α-tubulin were used as controls for nuclear and cytoplasmic fractions, respectively. (f) Human CD14+ cells were cultured with M-CSF (20 ng/ml) for 8 hours to induce early signals and then MDL 28170(5 uM). Immunoblot with anti c-FMS and Lamin B1 antibodies. (g and h) Calpain 1, 5, and 6 were knocked down with siRNAs. Cells were cultured with M-CSF for 12 hours. (g) Efficiency of knockdown of Calpain 1, 5, and 6. (h) Immunoblot of c-FMS and Lamin B1. All data are shown as mean±SEM. *,p<0.05 by two-tailed, unpaired t-test (g). Representative results from at least three independent experiments.
(A and B) Human CD14+ cells were cultured with M-CSF (20 ng/ml) for 8 hours to induce early signals and then (A) MDL 28170(0, 1, 2, 5 uM) or (B) PD150606 (0, 2, 5 uM) was added for 2 days. Immunoblot with anti c-FMS and α-tubulin antibodies in whole lysates(n=3). (C) Immunoblot of nuclear lysates with c-FMS and Lamin B1 antibodies. Cells were cultured with M-CSF for 12 hours, and then M-CSF was removed. Cells were subsequently treated with or without CaCl2 (10 mM) for an additional 24 hours. (D) Osteoclastogenesis assay. Human CD14+ cells were cultured with M-CSF, RANKL and MDL28170 for 4 days. […] Black scale bar is 100 μm. […] First two calpain cleavage sites in cytoplasmic domains of c-FMS were used for FICD constructs. (F) A schematic diagram of a FICD construct. Representative results from at least three independent experiments.
Whole cell extracts were prepared by lysis in buffer containing 1× Lamin sample buffer (Bio-rad) and 2-Mercaptoethanol (Sigma) or RIPA buffer (Sigma). The cell membrane-permeable protease inhibitor, Pefablock (1 mM), was added immediately prior to harvest cells. The membrane proteins were extracted with Mem-PER™ Plus Membrane Protein Extraction Kit (Thermorfisher scientific; 89842) according to manufacturer's instructions. To extracts of nucleus protein, cells were incubated in buffer A (10 mM Hepes, pH 7.9, 1.5 mM MgCl2, 10 mM KCl, 0.1 mM EDTA, 0.1 mM EGTA, proteinase inhibitor cocktail (Complete, Roche) and 1 mM DTT) for 15 min at 4° C. NP-40 was added to a final concentration of 0.5%. Nucleus was collected by centrifugation (5000 rpm, 5 min). The pellets were lysed by Bioruptor-ultrasonicator (UCD400, Diagenode) in buffer B (20 mM Hepes, pH 7.9, 0.4M NaCl, 10 mM KCl, 1 mM EDTA, 1 mM EGTA, 10% Glycerol, proteinase inhibitor cocktail and 1 mM DTT) and collected the supernatant by centrifugation (12,000 rpm, 10 min). The protein concentration of nuclear extracts was quantitated using the Bradford assay (Bio-Rad; 5000001). For immunoblot, proteins were separated on 7.5 or 10% SDS-PAGE gels, transferred to polyvinylidene difluoride membranes (PVDF, Millipore; ISEQ00010), and detected by antibodies as listed in the figure legends.

[4] = test system: L-FICD generation; test: Screening of 53 protease inhibitors from a protease library for L-FICD generation; assay type: cell-based
Excerpt: To identify the protease(s) responsible for cleavage of H-FICD in an unbiased manner, we performed a screening of 53 protease inhibitors using a protease library. The best hits associated with the inhibition of L-FICD generation were MDL28170 and PD150606—two calpain inhibitors—along with MMP inhibitors and γ-secretase inhibitors. Calpain is the family of calcium-dependent cytosolic cysteine proteases expressed ubiquitously in mammals and many other organisms (Pfaff, M., Du, X. & Ginsberg, M. H. Calpain cleavage of integrin beta cytoplasmic domains. FEBS Lett 460, 17-22 (1999)), and calpain-dependent cleavages contribute to modulating various cellular functions such as apoptosis, proliferation and migration (Deshpande, R. V. et al. Calpain expression in lymphoid cells. Increased mRNA and protein levels after cell activation. J Biol Chem 270, 2497-2505 (1995). Svensson, L. et al. Calpain 2 controls turnover of LFA-1 adhesions on migrating T lymphocytes. PloS one 5, e15090, doi:10.1371/journal.pone.0015090 (2010).). […] Since calpain is activated by calcium, we examined if calcium signaling could compensate for M-CSF signaling to generate FICDs. In the absence of c-FMS signaling, calcium signaling was able to promote the cleavage of […] in the nucleus, and […] reversed the effect of calcium signaling on L-FICD processing (FIG.10C). […]

[5] = test system: arthritic bone erosion; settings: rheumatoid arthritis patients; cited from earlier work
[6] = DAPT 10uM for 2 days after 8 hours M-CSF (20 ng/ml)

With `CNC(=O)[C@H](Cc1ccccc1)NC(=O)[C@H](CC(C)C)[C@H](CSc1cccs1)C(=O)NO` [BB94] the “ectodomain shedding of c-FMS, soluble c-FMS in the media” value [1] was “inhibited the ectodomain shedding of c-FMS; also recorded: inhibited the shedding of c-FMS and diminished soluble c-FMS in the media” and the “generation of FICDs” value [2] was “suppressed the generation of FICDs”.

For `C[C@H](NC(=O)Cc1cc(F)cc(F)c1)C(=O)N[C@H](C(=O)OC(C)(C)C)c1ccccc1` [DAPT, N-[N-(3,5-difluorophenacetyl)-L-alanyl]-S-phenylglycine t-butyl ester], the “cytosol and nuclear FICDs” value [3, 6] was “suppressed” and the “membrane-bound FICD” value [3, 6] was “membrane-bound FICD accumulated”.

With `O=C(O)/C(S)=C/c1ccc(I)cc1` [PD150606] the “inhibition of L-FICD generation (hit in screening)” value [4] was “best hits”.

For denosumab: an anti-RANKL antibody, the RA disease activity [5] is given as “without affecting” and the “progression of arthritic bone erosion” value [5] is given as “shows efficacy”.

B1: IL-34: ligand for c-FMS (protein, UniProt Q6ZMJ4 21-242, looked up)
Interleukin-34: NEPLEMWPLTQNEECTVTGFLRDKLQYRSRLQYMKHYFPINYKISVPYEGVFRIANVTRLQRAQVSERELRYLWVLVSLSATESVQDVLLEGHPSWKYLQEVETLLLNVQQGLTDVEVSPKVESVLSLLNAPGPNLKLVRPKALLDNCFRVMELLYCSCCKQSSVLNWQDCEVPSPQSCSPEPSLQYAATQLYPPPPWSPSSPPHSTGSVRPVRAQGEGLLP
In the case of B1, the “generation of H-FICD and L-FICD and cellular distribution of FICDs” value [3] is reported as “induced”.

B2: M-CSF: ligand for c-FMS (protein, UniProt P09603 33-554, looked up)
Macrophage colony-stimulating …: EEVSEYCSHMIGSGHLQSLQRLIDSQMETSCQITFEFVDQEQLKDPVCYLKKAFLLVQDIMEDTMRFRDNTPNAIAIVQLQELSLRLKSCFTKDYEEHDKACVRTFYETPLQLLEKVKNVFNETKNLLDKDWNIFSKNCNNSFAECSSQDVVTKPDCNCLYPKAIPSSDPASVSPHQPLAPSMAPVAGLTWEDSEGTEGSSLLPGEQPLHTVDPGSAKQRPPRSTCQSFEPPETPVVKDSTIGGSPQPRPSVGAFNPGMEDILDSAMGTNWVPEEASGEASEIPVPQGTELSPSRPGGGSMQTEPARPSNFLSASSPLPASAKGQQPADVTGTALPRVGPVRPTGQDWNHTPQKTDHPSALLRDPPEPGSPRISSLRPQGLSNPSTLSAQPQLSRSHSSGSVLPLGELEGRRSTRDRRSPAEPEGGPASEGAARPLPRFNSVPLTDTGHERQSEGSFSPQLQESVFHLLVPSVILVLLAVGGLLFYRWRRRSHQEPQRADSPLEQPEGSPLTQDDRQVELPV
For B2, the “generation of H-FICD and L-FICD and cellular distribution of FICDs” value [3] was “induced”.
